For series [1], the system named is light sensitivity of dark adapted rats. The series can be described thus: ERG analysis of dark adaptation, dose ranging protocol. The conditions noted are these: i.p. It is filed as in vivo, rat. The method, then: Dark adaptation is the recovery of visual sensitivity following exposure to light. Dark adaptation has multiple components including both fast (neuronal) processes and slow (photochemical) process. Regeneration of visual pigment is related to the slow photochemical process. Dark adaptation rates are measured for several reasons. Night blindness results from a failure to dark adapt (loss of visual light sensitivity). It is possible to find a safe dose for night vision by measuring drug effects on dark adapted visual light sensitivity.
An electroretinogram (ERG) is used measure dark adaptation under normal vs. drug conditions. ERG is the measurement of the electric field potential emitted by retinal neurons during their response to an experimentally defined light stimulus. More specifically, ERG measures retinal field potentials at the cornea after a flash of light (e.g., 50 ms). Field strengths are 10^2 to 10^3 microvolts, originating in retinal cells.
ERG is a non-invasive measurement which can be performed on either living subjects (human or animal) or a hemisected eye in solution that has been removed surgically from a living animal. […]
The ERG measurement is taken after a specific duration of post-bleach dark recovery (e.g., 30 min) determined previously by kinetic analysis (see FIGS. 6a and 6b). […]

A short description of series [2]: NMR analysis of RAL reactions (Schiff base condensation and ring formation). It is filed as physicochemical. The conditions noted are these: Schiff base condensation with RAL, pure chloroform.

The text below walks through data of US9364471B2, “Compositions and methods of treating retinal disease” (ALDEYRA THERAPEUTICS, INC., priority 2005, dated 2016).

Take `CCOC(=O)c1cccc(N)c1` [Compound 6, tricaine methane sulfonate]: the “effect on ERG light sensitivity of dark adapted rats” value in series [1] (dose ranging, FIG. 7) is “lowers light sensitivity of dark adapted rats in a dose dependent manner”. The “duration of the effect on vision” value in series [1] (rat ERG) is on record as “decreases after 3 hours”.

In the case of `CC(C)(O)c1nc2ccc(Cl)cc2cc1N` [Compound 9], the “tau (minutes) condense” value in series [2] worked out at 320 min.
